Broadly, the IC50 is the concentration needed to halve the response being measured. What is called solubility (thermodynamic) is solubility found after equilibrating the solid with the medium. What is called solubility is the dissolved amount per volume that the medium holds. Read a high solubility as much dissolved substance.

Data on 11 compounds can be found in patent US20240309059A1, “PEPTIDE HAVING ANTI-VIRAL ACTIVITY, ANTI-VIRAL AGENT COMPRISING SAID PEPTIDE, AND METHOD FOR PRODUCING SAID ANTI-VIRAL AGENT” (National University Corporation Tokyo Medical and Dental …, priority 2021, published 2024).

The nature of series [1]: solubility to 50 mM HEPES buffer solution (pH 8.0). Type of series: physicochemical. As to conditions: room temperature. As for the experimental part: In this Example, Ce113, Ce149, Ce172, Ce173 and Ce174 developed in the aforementioned Examples were each dissolved in 50 mM HEPES buffer solution (pH 8.0) and the degrees of solubility of them to 50 mM HEPES buffer solution (pH 8.0) were computationally obtained.
Ce113, Ce149, Ce172, Ce173 and Ce174 having the aforementioned amino acid sequences were chemically synthesized and each dissolved in a 50 mM HEPES buffer solution (pH 8.0). To describe more specifically, the peptides chemically synthesized were each added to the 50 mM HEPES buffer solution (pH 8.0) of 250 μL and stirred by pipetting using a micropipette a sufficient number of times and allowed to stand still at room temperature. When undissolved residue was not present, the peptide was further added and the same operation was repeated. When undissolved residue was present, the sample was allowed to stand still for 10 minutes, stirred by pipetting using a micropipette a sufficient number of times and allowed to stand still at room temperature. The operation of this step was repeated further twice and then concentration was measured by NanoPhotometer NP80 manufactured by IMPLEN to evaluate the degrees of solubility to the 50 mM HEPES buffer solution (pH 8.0).

A short description of series [2]: solubility to ultra-pure water. Type of series: physicochemical. As to conditions: room temperature. The protocol: In this Example, Ce4, Ce9, Ce41 and Ce59 developed in the aforementioned Examples were each dissolved in ultra-pure water and the degrees of solubility of them to ultra-pure water were computationally obtained.
Ce4, Ce9, Ce41 and Ce59 having the aforementioned amino acid sequences were chemically synthesized and each dissolved in ultra-pure water. To describe more specifically, the peptides chemically synthesized were each added to ultra-pure water of 250 μL and stirred by pipetting using a micropipette a sufficient number of times and allowed to stand still at room temperature. When undissolved residue was not present, the peptide was further added and the same operation was repeated. When undissolved residue was present, the sample was allowed to stand still for 10 minutes, again stirred by pipetting using a micropipette a sufficient number of times and allowed to stand still at room temperature. After the operation in this step was repeated further twice, concentration was measured by NanoPhotometer NP80 manufactured by IMPLEN to evaluate the degrees of solubility to ultra-pure water.

Series [3] concerns the target receptor binding domain (RBD) in wild-type SARS-COV-2 (Severe acute respiratory syndrome coronavirus 2, UniProt P0DTC2). As to conditions: result in words (binding rate and degree of dissociation).

Ends that are not written are not given here.

`CC[C@H](C)[C@H](NC(=O)[C@H](CC(C)C)NC(=O)[C@H](CC(=O)O)NC(=O)[C@H](CO)NC(=O)[C@@H](NC(=O)[C@H](CCCNC(=N)N)NC(=O)[C@H](CCSC)NC(=O)[C@H](CO)NC(=O)[C@H](C)NC(=O)[C@H](CCC(=O)O)NC(=O)[C@H](C)NC(=O)[C@H](Cc1c[nH]cn1)NC(=O)CNC(=O)[C@H](CC(C)C)NC(=O)[C@H](CCC(=O)O)NC(=O)[C@H](CC(=O)O)NC(=O)[C@H](CC(C)C)NC(=O)[C@H](CC(C)C)NC(=O)[C@H](CCCNC(=N)N)NC(=O)[C@H](CCSC)NC(=O)[C@@H](NC(=O)[C@H](CCC(=O)O)NC(=O)[C@H](Cc1ccc(O)cc1)NC(=O)[C@@H](NC(=O)[C@H](CCCCN)NC(=O)[C@H](CCC(N)=O)NC(=O)[C@H](CC(C)C)NC(=O)[C@@H](NC(=O)[C@H](Cc1c[nH]c2ccccc12)NC(=O)[C@H](CCC(=O)O)NC(=O)[C@H](CCCCN)NC(=O)[C@@H](N)CC(=O)O)[C@@H](C)CC)[C@@H](C)CC)[C@@H](C)CC)C(C)C)C(=O)N[C@@H](Cc1ccc(O)cc1)C(=O)N[C@@H](CCC(=O)O)C(=O)N[C@@H](Cc1ccccc1)C(=O)N[C@@H](CCSC)C(=O)N[C@@H](CCCCN)C(=O)N[C@@H](CCCCN)C(=O)NCC(=O)O` [Ca1, reference compound] had an IC50 in the series with wild-type SARS-COV-2 of 107 nM.
The same measure, in the same setting: the value for `CC[C@H](C)[C@H](NC(=O)[C@H](CC(C)C)NC(=O)[C@H](CC(=O)O)NC(=O)[C@H](CO)NC(=O)[C@@H](NC(=O)[C@H](CCCNC(=N)N)NC(=O)[C@H](CCSC)NC(=O)[C@H](CO)NC(=O)[C@H](C)NC(=O)[C@H](CCC(=O)O)NC(=O)[C@H](C)NC(=O)[C@H](Cc1c[nH]cn1)NC(=O)CNC(=O)[C@H](CC(C)C)NC(=O)[C@H](CCC(=O)O)NC(=O)[C@H](CC(=O)O)NC(=O)[C@H](CC(C)C)NC(=O)[C@H](CC(C)C)NC(=O)[C@H](CCCNC(=N)N)NC(=O)[C@H](CCSC)NC(=O)[C@@H](NC(=O)[C@H](CCC(=O)O)NC(=O)[C@H](Cc1ccc(O)cc1)NC(=O)[C@@H](NC(=O)[C@H](CCCCN)NC(=O)[C@H](CCC(N)=O)NC(=O)[C@H](CC(C)C)NC(=O)[C@@H](NC(=O)[C@H](Cc1c[nH]c2ccccc12)NC(=O)[C@H](CCC(=O)O)NC(=O)[C@H](CCCCN)NC(=O)[C@@H](N)CC(=O)O)[C@@H](C)CC)[C@@H](C)CC)[C@@H](C)CC)C(C)C)C(=O)N[C@@H](Cc1ccc(O)cc1)C(=O)N[C@@H](CCC(=O)O)C(=O)N[C@@H](Cc1ccccc1)C(=O)N[C@@H](CCSC)C(=O)N[C@@H](CCCCN)C(=O)N[C@@H](CCCCN)C(=O)N[C@@H](CC(=O)O)C(=O)O` [Ce1] was 1.5 nM.
Take “DKEWILQKIYEIMQRLDEEGHGEASLMVSDLIYEFMKRD [Ce113]”: the solubility (thermodynamic) at 30 min in series [1] was 2500 µM.
As for “DKEWILQKIYEIMRKLDEDGHAEASMRVSDLIYEFMKKD [Ce4]”, in series [2], the thermodynamic solubility at 30 min was found to be 4400 µM. This counts as millimolar.
Consider “DKEWILQKIYEIMRRLDEEGHAEASMRVSDLIYEFMKKD [Ce9]”, for which the solubility (thermodynamic) at 30 min in series [2] amounted to 5200 µM. In the series with wild-type SARS-COV-2, this compound displayed an IC50 of 0.4 nM.
On to “DKEWILQKIYEIMRRLDEEGHGEASLRVSDLIYEFMKKD [Ce41]”, for which, in series [3], the “binding activity to the receptor binding domain (RBD)” value is on record as “high binding activity”. Also, in series [2], the solubility stood at 6100 µM.
Consider “DKEWILQKIYEIMRRLDEEGHGEASLRVSDLIYEFMKRD [Ce59]”, for which the solubility (thermodynamic) at 30 min in series [2] turned out to be 6100 µM.
“DKEWILYKIYEIMQRLDEEGHGEASLMVSDLIYEFMKRD [Ce174]” returned a solubility (thermodynamic) at 30 min in series [1] of 1600 µM. In other words, the millimolar range.
Same read-out and setting: the value for “DKEWILYKIYEIMVRLDEEGHGEASLMVSDLIYEFMKRD [Ce149]” was 1300 µM.
In series [1], “DKLWILQKIYEIMQRLDEEGHGEASLMVSDLIYEFMKRD [Ce173]” returned a solubility (thermodynamic) at 30 min of 1500 µM.
In series [1], “DKLWILQKIYEIMVRLDEEGHGEASLMVSDLIYEFMKRD [Ce172]” returned a solubility (thermodynamic) at 30 min of 1100 µM.
